Consider 20 compounds from patent US5147878A, “Aminoalkoxyphenyl derivatives, process of preparation and compositions containing the same” (Sanofi, priority 1986, dated 1992).

Where a name gives a salt, the structure may show the parent alone.

The assay concerns isolated rat aorta. Description: Calcium inhibitory properties: contractile response to potassium-induced depolarization on isolated rat aorta. As to conditions: for activity at 0.1 µM / activity at 0.01 µM / activity at 1 µM / activity at 0.001 µM: Rattus norvegicus, 1 h, read-out: % of the maximum contractional effect; for % of the maximum contractional effect: 60 min; for activity at 0.001 µM: 10^-9 M. Set-up: species or system isolated organ, male Wistar rats. The text has this: It is well established that the depolarization of a smooth muscle membrane by potassium renders the latter permeable to extracellular calcium and induces muscle contraction. Consequently, the measurement of the inhibition of the contractile response to depolarization by potassium, or the measurement of a relaxation of the tonic contraction on potassium depolarization, can represent an evaluation of the power of a compound as an inhibitor of the membrane permeability to Ca^++ ions. The technique used was as follows: The aorta was removed from male Wistar rats weighing approximately 300 g, and cut into strips approximately 40 mm long and 3 mm wide. These fragments were placed in a 25-ml isolated organ trough containing a modified Krebs-bicarbonate solution (112 mM NaCl; 5 mM KCl; 25 mM NaHCO3; 1 mM KH2 PO4; 1.2 mM MgSO4; 2.5 mM CaCl2; 11.5 mM glucose, distilled water to 1000 ml) through which a stream of 5-7% carbon dioxide in oxygen was passed, and maintained at 37° C. The preparation was connected to a force microsensor and the contractile response recorded after amplification on a recorder. A tension of 2 g was applied to the preparation. This tension was maintained for 60 minutes in the modified Krebs-bicarbonate solution, and contractions were then induced by replacing the Krebs-bicarbonate solution by a potassium-Krebs solution (17 mM NaCl; 100 mM KCl; 25 mM NaHCO3; 1 mM KH2 PO4; 1.2 mM MgSO4; 2.5 mM CaCl2; 11.5 mM glucose; distilled water to 1000 ml). When the contractile response of the preparation had become reproducible, a given amount of a compound of the invention was introduced into the bath. Sixty minutes later, a new spasm was induced by potassium depolarization. The results obtained on the aorta used in the experiment were then expressed as a percentage of the maximum contractional effect before incubation with the test substance. By way of examples, the results which follow were obtained, the compounds of formula (1) being in the form of the base, hydrochloride or oxalate.

Setting [1] is: head printed "10^-" (exponent missing; first of three columns before 10^-6 M).

As to `CCCCCN(CCCCC)CCCOc1ccc(S(=O)(=O)c2c(C(C)C)cn3ccccc23)cc1` [Ex. 37, 2-Isopropyl-1-{4-[3-(di-n-pentylamino)propyloxy]-benzenesulphonyl}indolizine hydrochloride], the activity at 0.1 µM (10^-7 M) was determined as 48.7%. Moreover, the activity at 0.01 µM (10^-8 M) was 77.8%.

As for `CCCCN(CCCC)CCCOc1ccc(S(=O)(=O)c2c(C(C)(C)C)cn3ccccc23)cc1` [Ex. 16, 2-tert-Butyl-1-{4-[3-(di-n-butylamino)propyloxy]-benzenesulphonyl}indolizine], under “10^-7 M”, the activity at 0.1 µM stood at 35.8%. For the same compound, under “10^-8 M”, the activity at 0.01 µM is 78.7%.

`CC(C)(C)NCCCOc1ccc(S(=O)(=O)c2ccccn2)cc1` [Ex. 62, 2-{4-[3-(tertiobutylamino)propyloxy]benzenesulphonyl}pyridine oxalate]: where the note is “10^-6 M”, the activity at 1 µM worked out at 87.1%. Besides, the “% of the maximum contractional effect” value under setting [1] turned out to be 70.6%.

Consider `COc1ccc(CCN(C)CCCOc2ccc(S(=O)(=O)c3c(C(C)C)n(C)c4ccccc34)cc2)cc1OC` [Ex. 109, 1-methyl-2-isopropyl-3-[4-{3-[N-methyl-N-(3,4-dimethoxy-β-phenethyl)amino]propyloxy}benzenesulphonyl]indole], for which the activity at 0.001 µM stood at 71.4%. Also, the activity at 1 µM (10^-6 M) was found to be 0%. Also, the activity at 0.1 µM (10^-7 M) was 5.1%. For the same compound, the activity at 0.01 µM (10^-8 M) was 34.5%.

As to `CCCCN(CCCC)CCCOc1ccc(S(=O)(=O)c2c(-c3ccccc3)noc2C(C)C)cc1` [Ex. 126, 4-{4-[3-(di-n-butylamino)propyloxy]benzenesulphonyl}-5-isopropyl-3-phenyl-isoxazole], the activity at 1 µM (10^-6 M) was 10%. Also, the activity at 0.1 µM (10^-7 M) was determined as 38.7%. For the same compound, the activity at 0.01 µM (10^-8 M) was determined as 75.8%.

`CCCCCCCCN(CCCCCCCC)CCCOc1ccc(S(=O)(=O)c2c(C(C)C)cn3ccccc23)cc1` [Ex. 36, 2-Isopropyl-1-{4-[3-(di-n-octylamino)propyloxy]-benzenesulphonyl}indolizine]: under “10^-6 M”, the activity at 1 µM came to 83.3%. Further, the activity at 0.1 µM (10^-7 M) turned out to be 93.7%.

On to `CCCCN(CCCC)CCCOc1ccc(S(=O)(=O)c2c(C(C)C)[nH]c3ccccc23)cc1` [Ex. 106, 2-Isopropyl-3-{4-[3-(di-n-butylamino)propyloxy]benzenesulphonyl}indole acid], for which the activity at 1 µM (10^-6 M) was determined as 4.9%. Also, the activity at 0.1 µM (10^-7 M) was found to be 37.4%. In addition, the activity at 0.01 µM (10^-8 M) stood at 66%.

For `CCCCN(CCCC)CCCOc1ccc(S(=O)(=O)c2c(CC)sc3c2CN(Cc2ccccc2Cl)CC3)cc1` [Ex. 121, 5-(2-chloro-benzyl)-2-ethyl-3-{4-[3-(di-n-butylamino)propyloxy]benzenesulphonyl}-4,5,6,7-tetrahydro-thieno[3,2-c]pyridine dioxalate], for the setting “10^-6 M”, the activity at 1 µM was found to be 66.2%. The activity at 0.1 µM (10^-7 M) was determined as 77.5%. The activity at 0.01 µM (10^-8 M) turned out to be 85.7%.

With `CC(C)c1c(S(=O)(=O)c2ccc(OCCCNC(C)(C)C)cc2)c2ccccc2n1C` [Ex. 112, 1-methyl-2-isopropyl-3-[4-{3-(tert-butylamino)propyloxy}benzenesulphonyl]indole], where the note is “10^-6 M”, the activity at 1 µM came out at 8.1%. Moreover, the activity at 0.1 µM (10^-7 M) came to 51.7%. Besides, under “10^-8 M”, the activity at 0.01 µM amounted to 84.5%.

As to `CC(C)(C)NCCCOc1ccc(S(=O)(=O)c2c(-c3ccccc3)cn3ccccc23)cc1` [Ex. 24, 2-Phenyl-1-{4-[3-(tert-butylamino)propyloxy]benzenesulphonyl}indolizine hydrochloride], under “10^-6 M”, the activity at 1 µM was 62.1%.

On to `CCc1sc2c(c1S(=O)(=O)c1ccc(OCCCN(C)CCc3ccc(OC)c(OC)c3)cc1)CN(Cc1ccccc1Cl)CC2` [Ex. 120, 5-(2-chloro-benzyl)-2-ethyl-3-[4-{3-[N-methyl-N-(3,4-dimethoxy-β-phenethyl)amino]propyloxy}benzenesulphonyl]-4,5,6,7-tetrahydrothieno[3,2-c]pyridine oxalate], for which, where the note is “10^-6 M”, the activity at 1 µM came to 59.8%. Moreover, the activity at 0.1 µM (10^-7 M) came out at 68.7%. In addition, the activity at 0.01 µM (10^-8 M) amounted to 91.4%.

Turning to `CC(C)c1oc2ccccc2c1S(=O)(=O)c1ccc(OCCCNCCc2ccc3c(c2)OCO3)cc1.O=C(O)C(=O)O` [Ex. 95, 2-Isopropyl-3-[4-{3-[N-[3-(1,3-benzodioxolyl)]-β-ethyl]amino]propyloxy}benzenesulphonyl benzofuran acid oxalate], the “% of the maximum contractional effect” value (10^-6 M, 1 µM) is reported as 13.6%; the “% of the maximum contractional effect” value (10^-7 M, 0.1 µM) stood at 50.6%; the “% of the maximum contractional effect” value (10^-8 M, 0.01 µM) was 81.4%.

Turning to `COc1ccc(CCN(C)CCCOc2ccc(S(=O)(=O)c3cc4ccccc4nn3)cc2)cc1OC` [Ex. 81, 3-[4-{3-[N-methyl-N-(3,4-dimethoxy-β-phenethyl)amino]propyloxy}benzenesulphonyl]cinnoline oxalate], the activity at 1 µM (10^-6 M) came to 73.1%. Further, the activity at 0.1 µM (10^-7 M) was found to be 86.6%. Besides, the “% of the maximum contractional effect” value under setting [1] amounted to 19.2%.

With `CCCCN(CCCC)CCCOc1ccc(S(=O)(=O)c2ccccc2CC)cc1` [Ex. 117, 2-Ethyl-1-{4-[3-(di-n-butylamino)propyloxy]benzenesulphonyl}benzene acid oxalate], under “10^-6 M”, the activity at 1 µM came to 4.2%. Moreover, the activity at 0.1 µM (10^-7 M) amounted to 43.4%. For the same compound, for the setting “10^-8 M”, the activity at 0.01 µM was determined as 85.1%.

Consider `CC(C)c1cn2ccccc2c1S(=O)(=O)c1ccc(OCCCN2CCN(c3ccccc3)CC2)cc1` [Ex. 33, 2-Isopropyl-1-{4-[3-(N-phenylpiperazino)propyloxy]benzenesulphonyl}indolizine], for which the activity at 1 µM (10^-6 M) was 24.6%. The activity at 0.1 µM (10^-7 M) came out at 57.6%. The activity at 0.01 µM (10^-8 M) was determined as 87%.

For the compound `COc1ccc(CCN(C)CCCOc2ccc(Sc3cnnc4ccccc34)cc2)cc1OC` [Ex. 80, 4-[4-{3-[N-methyl-N-(3,4-dimethoxy-β-phenethyl)amino]propyloxy}phenylthio]cinnoline oxalate], the activity at 1 µM (10^-6 M) amounted to 64.2%. Besides, the activity at 0.1 µM (10^-7 M) was 85.4%. Besides, under setting [1], the “% of the maximum contractional effect” value is given as 3.0%.

In the case of `COc1ccc(CCN(C)CCCCOc2ccc(S(=O)(=O)c3c(C(C)C)oc4ccccc34)cc2)cc1OC` [Ex. 93, 2-Isopropyl-3-[4-{4-[N-methyl-N-(3,4-dimethoxy-β-phenethyl)amino]butyloxy}benzenesulphonyl]benzofuran acid oxalate], the activity at 0.1 µM (10^-7 M) was 33.6%. Moreover, under “10^-8 M”, the activity at 0.01 µM was determined as 53.1%.

As to `CCCCN(CCCC)CCCOc1ccc(S(=O)(=O)c2ncsc2-c2ccccc2)cc1` [Ex. 124, 4-{4-[3-(di-n-butylamino)propyloxy]benzenesulphonyl}-5-phenyl-thiazole acid oxalate], the activity at 1 µM (10^-6 M) is 13.7%. Besides, the activity at 0.1 µM (10^-7 M) was 66.7%. Besides, the activity at 0.01 µM (10^-8 M) was 90.6%.

As for `CCc1ccccc1S(=O)(=O)c1ccc(OCCCN(C)CCc2ccc(OC)c(OC)c2)cc1` [Ex. 116, 2-Ethyl-1-[4-{3-[N-methyl-N-(3,4-dimethoxy-β-phenethyl)amino]propyloxy}benzenesulphonyl]benzene acid oxalate], the activity at 0.001 µM was determined as 84.8%. Besides, the activity at 0.1 µM (10^-7 M) came out at 6%. Besides, the activity at 0.01 µM (10^-8 M) was 66.1%.

For the compound `COc1ccc(CN(C)CCCOc2ccc(S(=O)(=O)c3c(C(C)C)n(C)c4ccccc34)cc2)cc1OC` [Ex. 111, 1-Methyl-2-isopropyl-3-[4-{3-[N-methyl-N-(3,4-dimethoxy-benzyl)amino]propyloxy}benzenesulphonyl]indole acid oxalate], the activity at 0.001 µM was determined as 81.8%. Besides, the activity at 0.1 µM (10^-7 M) was 11.8%. The activity at 0.01 µM (10^-8 M) turned out to be 25%.
